From US20260116946A1, “NOVEL CD200 FUSION PROTEINS” (DUCENTIS BIOTHERAPEUTICS LIMITED, priority 2022, published 2026)

Legend:
U937-CD200R cells = assay: Cytokine release (IL-6 inhibition) assay, LPS stimulated U937-CD200R cells; assay type: cell-based, human
Method: Cytokine production, including IL-6, from these cells can be induced by stimulation with PMA and then LPS.
50,000 U937 cells per well were seeded in 96 well plates and differentiated following incubation for 72 hours with 100 nM PMA. Following differentiation, the PMA containing media was replaced with fresh assay media and incubated for a further 2 hours prior to treatment. CD200-Fc constructs were added with or without Fc block to the cell culture and incubated for 1 hour, then cells were stimulated with 100 ng/ml LPS and incubated for a further 24 hours. Following the final incubation, cell supernatant (diluted 1:10) was collected and assayed for IL-6 secretion by ELISA assay using a commercially available kit.
Cell line construction, cytokine inhibition testing, and cell binding testing were conducted using similar techniques as in Example 3 above.

human CD200R = molecular target: T1, human CD200R (Homo sapiens, UniProt Q8TD46); assay: BIAcore SPR binding of CD200-Fc to human CD200R
T1 construct: His; purchased Creative Biomart CD200R1-320H
T1 sequence (Q8TD46 25-348): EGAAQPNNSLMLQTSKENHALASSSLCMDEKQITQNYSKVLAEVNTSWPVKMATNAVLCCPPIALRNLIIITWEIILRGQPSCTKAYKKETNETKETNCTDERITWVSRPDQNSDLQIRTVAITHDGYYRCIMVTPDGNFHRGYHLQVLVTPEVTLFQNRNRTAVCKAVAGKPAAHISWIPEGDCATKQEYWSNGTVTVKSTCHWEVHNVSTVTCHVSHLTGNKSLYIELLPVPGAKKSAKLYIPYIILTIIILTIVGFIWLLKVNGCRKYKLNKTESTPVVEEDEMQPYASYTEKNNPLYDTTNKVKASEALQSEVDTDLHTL
Excerpt: (§1) BIAcore instrumentation uses an optical method, Surface Plasmon Resonance (SPR), to measure the binding characteristics of two interacting molecules; in this case wild-type CD200-Fc or CD200-Fc mutants binding to the CD200 receptor (CD200R). The technique measures changes in the refractive index of one of the two interacting molecules captured on a chip (sensor) when the second molecule is flowed in solution over the captured partner. In these experiments CD200-Fc was immobilized on the chip (sensor) surface and CD200R was injected in an aqueous buffer over the captured CD200-Fc under continuous flow conditions. Changes in the CD200-Fc refractive index following CD200R binding were measured in real time and the result plotted as response units (RUs) versus time to generate sensorgrams.
The experiments were performed on a GE Healthcare BIAcore T200. Human, cynomolgus and mouse CD200R proteins were purchased from Creative Biomart (CD200R1-320H, CD200R1-3483C, CD200R1-3280M). All measurements were performed in duplicate.
For human CD200 constructs: anti-human Fc (GE Healthcare) was covalently immobilized on a BIAcore CM5 sensor chip (Cytiva, BR100530) by amine coupling using a Cytiva kit (BR100839) following the manufacturer's instructions, targeting immobilization of 8,000-11,000 RU. […]
(§2) For mouse CD200 constructs, muCD200R-Fc (Creative Biomart CD200R1-458M) diluted to 1 μg/mL in running buffer was flowed over the immobilized Anti-Human IgG Fc, with CD200 monomers serially diluted and flowed over captured CD200R. […] Data analysis: experimental sensorgrams were analyzed in BIAevaluation software (GE Healthcare). […] Closeness of fit was determined by algorithms provided by the manufacturer in the BIAevaluation software, and data accepted if the Chi^2 value was less than 10% of Rmax, and the U value was less than or equal to 15.

cyno CD200R = assay: BIAcore SPR binding of CD200-Fc to cynomolgus CD200R; conditions: 25° C., mean of two runs
Excerpt: as §1
The experiments were performed on a GE Healthcare BIAcore T200. […]
as §2

[1] = human CD200R, 25° C., mean of two runs

ka (cyno CD200R): 159100 M⁻¹ s⁻¹
kd (cyno CD200R): 0.03997 s⁻¹
Substance: ARQ-234: mutated human CD200-Fc fusion protein: CD200 K130Y, I131Y directly fused to IgG4 Fc S228P, M428L, N434S
inhibition of LPS stimulated IL-6 release (U937-CD200R cells; PMA differentiated U937-CD200R cells, 100 ng/ml LPS, 24 hours, ELISA): able to inhibit LPS stimulated IL-6 secretion in a concentration dependent manner
effect of Fc block on inhibition of IL-6 release (U937-CD200R cells; with versus without Fc block reagent): No significant difference in inhibition
ka (human CD200R; [1]): 221600 M⁻¹ s⁻¹
kd (human CD200R; [1]): 0.0004675 s⁻¹
fold greater affinity for human CD200 receptor than wild-type CD200-Fc (DS-155) (human CD200R; versus DS-155): approx. 84 fold
